Source: patent US20250270216A1, “ANTI-INFECTIVE AGENTS” (UNIVERSITY OF DUNDEE, priority 2022, published 2025)

Assays:
C. parvum Iowa strain = test: Cryptosporidiosis NOD SCID gamma mouse model, fecal oocyst shedding by quantitative PCR; assay type: in vivo, Cryptosporidium parvum; conditions: NOD SCID gamma mice, average reduction in oocyst shedding compared to untreated vehicle
From the text: The in vivo measurement of the potential efficacy of compounds of formula (I) in a cryptosporidium mouse model has been carried out following the method described in Antimicrob. Agents Ch., 2018, 62, 4, e01505-17, and which is summarised below. The cryptosporidiosis NOD SCID gamma mouse model was run as follows: Male NOD SCID gamma mice (NOD.Cg-Prkdc^scid II2rg^tm1Wjt/SzJ, Jackson Labs) were infected approximately 2 weeks post weaning with 10^5 C. parvum Iowa strain oocysts by oral gavage. Four mice were used per experimental group. This establishes a chronic, asymptomatic infection of the small intestine, cecum, and biliary tree. Fecal parasite shedding is monitored by quantitative PCR to amplify C. parvum DNA. One week after infection (which is the timing with which shedding becomes uniformly detected), compounds are dosed by oral gavage. Treatment continued for seven days total. The number of oocysts per milligram of stool was measured for each mouse on day 8 (1 day after completion of the last dose) and day 15 […] (7 days after the completion of the last dose). Average oocyst concentrations were calculated for each group of mice. Log reduction is the average reduction in oocyst shedding compared to untreated vehicle. These experiments were run in accordance with the method of C. D. Huston et al, Antimicrob. Agents Ch., 2018, 62, 4, e01505-17.

[1] = target: T1, Human lysyl tRNA Synthetase (KRS) (Homo sapiens, UniProt Q15046); test: In vitro inhibition of human lysyl tRNA synthetase (KRS), Biomol green phosphate detection; assay type: biochemical; conditions: 3.5 μM ATP, 6 μM L-Lysine, 5 h room temperature; read-out: Hs KRS pIC50 (converted)
T1 construct: His tag with PreScission site (His PP pET15b); made in house; host or cells: E. coli BL21 (DE3)
T1 sequence (Q15046 whole entry): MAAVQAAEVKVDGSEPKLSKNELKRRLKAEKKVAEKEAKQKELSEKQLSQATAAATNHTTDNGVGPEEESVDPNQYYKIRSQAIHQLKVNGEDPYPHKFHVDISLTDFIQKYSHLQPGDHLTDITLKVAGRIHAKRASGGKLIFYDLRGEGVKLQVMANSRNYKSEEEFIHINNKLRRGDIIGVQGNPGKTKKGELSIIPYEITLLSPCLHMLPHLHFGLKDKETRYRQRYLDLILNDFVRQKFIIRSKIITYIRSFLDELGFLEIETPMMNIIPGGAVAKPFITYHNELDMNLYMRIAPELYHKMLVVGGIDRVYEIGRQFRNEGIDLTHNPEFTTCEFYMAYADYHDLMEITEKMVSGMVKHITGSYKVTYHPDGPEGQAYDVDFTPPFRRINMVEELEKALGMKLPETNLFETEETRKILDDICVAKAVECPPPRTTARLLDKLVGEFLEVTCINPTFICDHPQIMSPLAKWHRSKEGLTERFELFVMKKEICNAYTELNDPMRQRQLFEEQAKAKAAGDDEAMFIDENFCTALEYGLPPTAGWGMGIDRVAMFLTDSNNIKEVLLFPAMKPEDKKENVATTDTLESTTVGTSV
Description: The gene coding for Human KRS, codon optimized for expression in E. coli, was obtained from Genscript and cloned into a His PP pET15b vector using Nde1 and Xho1 restriction sites. The resulting vector was used to transform BL21 (DE3) competent cells for protein expression. A 120 ml overnight culture was set up and grown at 37° C. 200 rpm for 16 h and used the next day to inoculate 6 litres of Autoinduction+AMP medium. This culture was grown at 37° C. for 4 h then 20° C. for 20 h. The cells were harvested by centrifugation at 3,500 g for 30 min then stored at −20° C. The resulting cell pellet was 50 g. Lysis buffer (150 ml, 25 mM HEPES/500 mM NaCl/20 mM imidazole/2 mM DTT/10% glycerol pH 7.5/protease inhibitor tablets/DNAase) was added and the pellets for defrosted at room temperature for approximately 10 min. The slurry was then passed through a Cell Disrupter (Constant Systems) set at […] to lyse the cells. The sample was then centrifuged at 40,000 g for 20 min. The supernatant was then filtered using syringe filters to 0.45 μm. The supernatant was loaded onto a 5 ml HiTrap Ni HP column that had been equilibrated with BufferA (25 mM HEPES/500 mM NaCl/20 mM Imidazole/2 mM DTT/10% Glycerol pH 7.5) at 5 ml/min using an AKTA Pure system. Once loaded the column was washed with 10 column volumes buffer A. A 5% step of Buffer B (25 mM HEPES/500 mM NaCl/500 mM Imidazole/2 mM DTT/10% Glycerol pH 7.5) was then used to wash off His rich contaminating proteins. A gradient of 5-50% B was used to elute the protein. Approximately 55 mg of protein was present in the fractions containing the HsKRS protein. The sample was then passed through a 0.2 μm filter, before loading onto a XK26/60 Superdex 200 column equilibrated with Buffer C (25 mM HEPES/150 mM NaCl/2 mM DTT/10% glycerol pH 7.0) using an AKTA Pure system at 4° C. at 2 ml/min. The sample was then dialyzed into 25 mM HEPES/500 mM NaCl//2 mM DTT/10% glycerol/0.25% azide pH 7.0. The protein was concentrated to 1 mg/ml and frozen at −80° C. Approximately 23 mg of protein was produced.
Assay Method for Measurement of In Vitro Inhibition of Human lysyl tRNA Synthetase (KRS)
Potency of compounds was determined in 10 points dose-response inhibition curves. Compounds were transferred into 384-well clear bottom plates (Greiner Bio-One, 781101) using an Echo 550 acoustic dispenser (Labcyte). Using an automatic liquid dispenser, 50 μL reaction mixes were prepared by adding 25 μL of substrate mix into all wells followed by the addition of 25 μL enzyme mix into all wells (final reaction: 30 mM Tris-HCl, pH 8.0, 40 mM MgCl2, 140 mM NaCl, 30 mM KCl, 0.01% Brij-35, 1 mM DTT, 3.5 μM ATP, 6 μM L-Lysine, 200 nM […] and 0.5 U/mL Pyrophosphatase). Complete inhibition control reactions were performed in the presence of 100 μM of control compoundand the plates were incubated at room temperature for 5 h. Reactions were stopped by the addition of Biomol green (50 μL: Enzo Life Sciences) with the amount of free phosphate detected by measuring absorbance (650 nm) after 20 min further incubation (BMG Pherastar plate reader). Counter screen assays to eliminate direct inhibition of pyrophsphatase were performed using 0.5 U/mL pyrophosphatase and 3 μM pyrophosphate as substrate in the same assay buffer (30 mM Tris-HCl, pH 8.0, 40 mM MgCl2, 140 mM NaCl, 30 mM KCl, 0.01% Brij-35, 1 mM DTT) for 5 hours at room temperature. Biomol green was added and incubated for 20 min before detection as above. Samples were run in duplicate and data was processed and analysed using ActivityBase (IDBS).

Cryptosporidium parvum = test: In vitro inhibition of Cryptosporidium (method of Bessoff et al.); assay type: cell-based; conditions: read-out: C. parvum PEC50 (converted)
From the text: Assay Method for Measurement of In Vitro Inhibition of Cryptosporidium
These experiments were run in accordance with the method of Besssoff et. al. Antimicrob. Agents Chemother. 2013, 57:1804-1814. Results from these experiments are provided in the Experimental Results hereinafter.

[2] = tested on: Hep G2 (Human hepatocyte carcinoma); test: In vitro inhibition of HepG2 cells (cytotoxicity); assay type: cell-based; conditions: read-out: Hs HepG2 PEC50 (converted)
From the text: Assay Method for Measurement of In Vitro Inhibition of HepG2 Cells (Cytotoxicity)
These experiments were run in accordance with the method of Mersch-Sundermann V et. al. Toxicology 2004, 198:329-340

IC50 [1] [µM]	EC50 (Cryptosporidium parvum) [nM]	Structure (SMILES)	Log Reduction (day 8) (C. parvum Iowa strain; 10 mg/kg P.O. B.I.D. 7 days)	Log Reduction (day 15) (C. parvum Iowa strain; 10 mg/kg P.O. B.I.D. 7 days)	Log Reduction (day 8) (C. parvum Iowa strain; 50 mg/kg P.O. B.I.D. 7 days)	Log Reduction (day 15) (C. parvum Iowa strain; 50 mg/kg P.O. B.I.D. 7 days)	EC50 [2] [µM]	Log Reduction (day 8) (C. parvum Iowa strain; 20 mg/kg P.O. B.I.D. 7 days)	Log Reduction (day 15) (C. parvum Iowa strain; 20 mg/kg P.O. B.I.D. 7 days)	Log Reduction (day 8) (C. parvum Iowa strain; 30 mg/kg P.O. B.I.D. 7 days)	Log Reduction (day 15) (C. parvum Iowa strain; 30 mg/kg P.O. B.I.D. 7 days)	Log Reduction (day 8) (C. parvum Iowa strain; 40 mg/kg P.O. B.I.D. 7 days)	Log Reduction (day 15) (C. parvum Iowa strain; 40 mg/kg P.O. B.I.D. 7 days)
> 100	158	Nc1nc2c(c(C(F)(F)F)n1)C(=O)N(CC1CCCC3(CC3)C1)C2 (racemic) [Compound 4, 2-amino-6-(spiro[2.5]octan-5-ylmethyl)-4-(trifluoromethyl)-6,7-dihydro-5H-pyrrolo[3,4-d]pyrimidin-5-one]	1.3	1.0	3.4	2.5	20	–	–	–	–	–	–
20	31.6	Nc1nc2c(c(C(F)(F)F)n1)C(=O)N(C[C@@H]1CCC[C@H](C(F)(F)F)C1)C2 [Compound 1, 2-amino-4-(trifluoromethyl)-6-(((1R,3S)-3-(trifluoromethyl)cyclohexyl)methyl)-6,7-dihydro-5H-pyrrolo[3,4-d]pyrimidin-5-one]	3.0	1.0	3.4	3.5	25.1	3.1	0.7	2.9	2.2	2.6	2.9
20	20	Cc1nc(N)nc2c1C(=O)N(C[C@@H]1CCC[C@H](C(F)(F)F)C1)C2 [Compound 2, 2-amino-4-methyl-6-(((1R,3S)-3-(trifluoromethyl)cyclohexyl)methyl)-6,7-dihydro-5H-pyrrolo[3,4-d]pyrimidin-5-one]	1.8	0.8	–	–	12.6	–	–	2.7	2.4	–	–
> 100	25.1	Nc1nc2c(c(C(F)F)n1)C(=O)N(C[C@@H]1CCC[C@H](C(F)(F)F)C1)C2 [Compound 3, 2-amino-4-(difluoromethyl)-6-(((1R,3S)-3-(trifluoromethyl)cyclohexyl)methyl)-6,7-dihydro-5H-pyrrolo[3,4-d]pyrimidin-5-one]	2.4	1.0	–	–	25.1	–	–	2.8	1.6	–	–
